According to patent publication US7354920B2, “Aryl and heteroaryl morpholine derivatives” (Eli Lilly and Company, priority 2002, dated 2008):
Counter-ions that a name gives are not always drawn. Like-named read-outs stand apart in the source and are kept apart here.

Target: T1, human norepinephrine transporter (Homo sapiens, UniProt P23975)
T1 construct: isolate and amplify each of the three full-length cDNAs from an appropriate cDNA library; expressed in transfected cells; host or cells: HEK293 cells, stably transfected (pcDNA3.1-type vector); membranes used
Assay: Scintillation proximity assay, [3H]-nisoxetine binding at the norepinephrine transporter

T1 sequence (P23975 whole entry): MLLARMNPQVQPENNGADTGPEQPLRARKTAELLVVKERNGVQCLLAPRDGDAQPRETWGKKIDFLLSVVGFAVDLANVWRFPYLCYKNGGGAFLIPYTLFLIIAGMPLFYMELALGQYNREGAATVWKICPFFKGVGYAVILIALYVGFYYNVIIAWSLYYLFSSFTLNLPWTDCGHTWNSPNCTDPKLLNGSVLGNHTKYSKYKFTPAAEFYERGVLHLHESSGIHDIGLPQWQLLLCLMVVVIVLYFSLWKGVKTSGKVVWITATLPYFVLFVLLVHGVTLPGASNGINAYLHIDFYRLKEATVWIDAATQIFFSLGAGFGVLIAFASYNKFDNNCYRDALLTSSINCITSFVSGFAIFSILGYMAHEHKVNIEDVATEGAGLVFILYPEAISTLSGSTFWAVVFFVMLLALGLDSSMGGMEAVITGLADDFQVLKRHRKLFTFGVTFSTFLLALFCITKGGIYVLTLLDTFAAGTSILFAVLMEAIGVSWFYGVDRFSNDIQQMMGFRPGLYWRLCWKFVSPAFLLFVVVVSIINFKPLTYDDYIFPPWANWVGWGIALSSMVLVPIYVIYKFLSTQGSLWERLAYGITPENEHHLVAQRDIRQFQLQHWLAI

| Ki | Ki (scintillation proximity assay, 3H-nisoxetine, HEK-293 membranes, read-out: NET Ki) | Structure (SMILES) |
| --- | --- | --- |
| 3.6 nM |  | COc1ccc(F)cc1CC(O)(c1ccccc1)[C@H]1CNCCO1 (stereo in doubt) [Example 8, (S,R) 2-(5-Fluoro-2-methoxy-phenyl)-1-morpholin-2-yl-1-phenyl-ethanol hydrochloride] |
|  | 12.4 nM | OC(Cc1ccccc1OC(F)(F)F)(c1ccccc1)[C@H]1CNCCO1 (stereo in doubt) [Example 5, (S,R) 1-Morpholin-2-yl-1-phenyl-2-(2-trifluoromethoxy-phenyl)-ethanol hydrochloride] |
